Laboratory results: patent US20240208994A1, “PLASMA KALLIKREIN INHIBITORS” (Merck Sharp & Dohme LLC, priority 2021, published 2024)

Legend:
Human plasma kallikrein = target: T1, Human plasma kallikrein (Homo sapiens, UniProt P03952); experiment: Plasma Kallikrein Assay; type: biochemical; settings: purified Human plasma kallikrein 0.5 nM, substrate Acetyl-K-P-R-AFC, HEPES pH 7.4, fluorescence 405 Ex/510 Em; read-out: PKal IC50
T1 construct: yields a heavy chain (371 amino acids) and a light chain (248 amino acids); purchased Enzyme Research Laboratories
Protocol: (§1) The effectiveness of a compound of the present invention as an inhibitor of plasma kallikrein can be determined using a relevant purified serine protease, and an appropriate synthetic substrate. The rate of hydrolysis of the chromogenic or fluorogenic substrate by the relevant serine protease was measured both in the absence and presence of compounds of the present invention. Assays were conducted at rt or at 37° C. […] A decrease in the rate of fluorescence change in the presence of inhibitor is indicative of enzyme inhibition. Such methods are known to one skilled in the art. The results of this assay are expressed as the half-maximal inhibitory concentrations (IC50), or the inhibitory constant, Ki.
Plasma kallikrein determinations were made in 50 mM HEPES buffer at pH 7.4 containing 150 mM NaCl, 5 mM CaCl2), and 0.1% PEG 8000 (polyethylene glycol: Fisher Scientific). Determinations were made using purified Human plasma kallikrein at a final concentration of 0.5 nM (Enzyme Research Laboratories) and the synthetic substrate, Acetyl-K-P-R-AFC (Sigma #C6608) at a concentration of […].
Activity assays were performed by diluting a stock solution of substrate at least tenfold to a final concentration ≤0.2 Km into a solution containing enzyme or enzyme equilibrated with inhibitor. Times required to achieve equilibration between enzyme and inhibitor were determined in control experiments. The reactions were performed under linear progress curve conditions and fluorescence increase measured at 405 Ex/510 Em nm. Values were converted to percent inhibition of the control reaction (after subtracting 100% Inhibition value). IC50 was determined by inflection point from a four parameter logistic curve fit. Ki was calculated using the Cheng Prusoff equation, Ki=IC50/(1+([S]/Km)).

human factor XIa = human factor XIa (Homo sapiens, UniProt P03951); experiment: Factor XIa Assay; type: biochemical; settings: human factor XIa 0.04 nM, 30 min pre-incubation at 25° C., substrate GPR-AFC, pH 7.4, 60 min incubation; read-out: FXIa IC50
Protocol: as §1, with “Coagulation factor XIa” for “plasma kallikrein”
Compounds were pre-incubated for 30 min at 25° C. with human (0.04 nM) factor XIa in 50 mM HEPES buffer with 150 mM sodium chloride, 5 mM calcium chloride, 0.1% PEG 8000, pH 7.4. factor XIa enzymatic activity was determined by addition of the substrate glycine-proline-arginine-7-amido-4-trifluoromethylcoumarin (GPR-AFC) and measurement of the fluorescence at 400/505 nm after a 60 min incubation at 25° C. The % inhibition for each data point was calculated from the data and analyzed using the log (inhibitor) vs. response four parameters equation to determine the half-maximal inhibitory concentrations (IC50). The IC50 were converted to equilibrium inhibitory constants (Ki) using the Cheng-Prusoff equation.

T1 sequence (P03952 391-638 limits assumed): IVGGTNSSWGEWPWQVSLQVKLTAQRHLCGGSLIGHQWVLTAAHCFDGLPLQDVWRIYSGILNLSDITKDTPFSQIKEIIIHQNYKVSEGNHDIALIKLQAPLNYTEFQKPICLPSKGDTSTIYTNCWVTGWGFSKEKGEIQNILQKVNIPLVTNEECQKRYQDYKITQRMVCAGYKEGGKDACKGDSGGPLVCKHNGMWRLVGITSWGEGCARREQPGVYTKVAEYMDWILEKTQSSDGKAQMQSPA
T1 sequence (P03952 20-390 partner limits assumed): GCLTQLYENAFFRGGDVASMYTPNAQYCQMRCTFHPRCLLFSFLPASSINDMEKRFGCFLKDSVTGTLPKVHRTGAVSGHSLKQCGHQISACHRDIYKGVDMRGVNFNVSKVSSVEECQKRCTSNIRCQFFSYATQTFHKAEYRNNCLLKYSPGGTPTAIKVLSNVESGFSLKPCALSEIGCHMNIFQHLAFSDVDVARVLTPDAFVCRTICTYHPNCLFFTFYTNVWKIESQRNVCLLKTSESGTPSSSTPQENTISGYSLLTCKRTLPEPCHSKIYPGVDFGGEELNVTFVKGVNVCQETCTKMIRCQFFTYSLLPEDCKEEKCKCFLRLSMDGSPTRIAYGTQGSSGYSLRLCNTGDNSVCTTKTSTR
Sequence of human factor XIa (P03951 388-625 limits assumed): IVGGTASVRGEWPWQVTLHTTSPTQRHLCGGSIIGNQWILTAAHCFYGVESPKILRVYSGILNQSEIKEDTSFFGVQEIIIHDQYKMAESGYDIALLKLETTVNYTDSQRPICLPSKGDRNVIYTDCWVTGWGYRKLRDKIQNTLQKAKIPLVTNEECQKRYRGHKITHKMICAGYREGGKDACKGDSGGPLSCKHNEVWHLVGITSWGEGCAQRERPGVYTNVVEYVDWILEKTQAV
Sequence of human factor XIa (P03951 19-387 partner limits assumed): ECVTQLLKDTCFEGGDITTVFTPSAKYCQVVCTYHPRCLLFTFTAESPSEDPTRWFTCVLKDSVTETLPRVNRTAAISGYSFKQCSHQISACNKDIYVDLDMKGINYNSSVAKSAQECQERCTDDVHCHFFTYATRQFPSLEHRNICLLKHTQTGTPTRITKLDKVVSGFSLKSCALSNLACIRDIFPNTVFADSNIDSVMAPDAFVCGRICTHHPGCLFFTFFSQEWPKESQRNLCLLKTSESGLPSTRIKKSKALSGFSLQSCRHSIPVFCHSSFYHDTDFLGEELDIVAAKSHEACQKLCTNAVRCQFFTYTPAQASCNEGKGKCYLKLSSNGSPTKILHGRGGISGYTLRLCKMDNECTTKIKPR

IC50 (Human plasma kallikrein) [nM] | IC50 (human factor XIa) [nM] | SMILES
5.7 | 430 | Nc1cc(-c2ccccc2I)nn1CC(=O)N1CC[C@@]2(C1)OC(=O)Nc1ccc(Cl)c(F)c12 [Example 58, (R)-1′-(2-(5-Amino-3-(2-iodophenyl)-1H-pyrazol-1-yl)acetyl)-6-chloro-5-fluorospiro[benzo[d][1,3]oxazine-4,3′-pyrrolidin]-2(1H)-one]
10.1 | 904 | COc1ccc(-c2cc(N)n(CC(=O)N3CC[C@@]4(C3)OC(=O)Nc3ccc(Cl)c(F)c34)n2)cc1 [Example 6, (R)-1′-(2-(5-Amino-3-(4-methoxyphenyl)-1H-pyrazol-1-yl)acetyl)-6-chloro-5-fluorospiro[benzo[d][1,3]oxazine-4,3′-pyrrolidin]-2(1H)-one]
8.4 | 826 | Nc1cc(-c2ncccc2F)nn1CC(=O)N1CCC[C@@]2(C1)OC(=O)Nc1ccc(Cl)c(F)c12 [Example 36, (R)-1′-(2-(5-Amino-3-(3-fluoropyridin-2-y1)-1H-pyrazol-1-yl)acetyl)-6-chloro-5-fluorospiro [benzo[d][1,3]oxazine-4,3′-piperidin]-2(1H)-one]
30.3 | 134 | Nc1c(Cl)c(-c2ccc(F)cc2F)nn1CC(=O)N1CC[C@@]2(C1)OC(=O)Nc1ccc(Cl)c(F)c12 [Example 19, (R)-1′-(2-(5-Amino-4-chloro-3-(2,4-difluorophenyl)-1H-pyrazol-1-yl)acetyl)-6-chloro-5-fluorospiro[benzo[d][1.3]oxazine-4,3′-pyrrolidin]-2(1H)-one 2,2,2-trifluoroacetate]
42.3 | 214 | Nc1c(Cl)c(-c2ccccc2)nn1CC(=O)N1CC[C@@]2(C1)OC(=O)Nc1ccc(Cl)c(F)c12 [Example 20, (R)-1′-(2-(5-Amino-4-chloro-3-phenyl-1H-pyrazol-1-yl)acetyl)-6-chloro-5-fluorospiro[benzo[d][1,3]oxazine-4,3′-pyrrolidin]-2(1H)-one]
8 | 653 | Nc1cc(-c2ccc3c(c2)OCO3)nn1CC(=O)N1CC[C@@]2(C1)OC(=O)Nc1ccc(Cl)c(F)c12 [Example 2, (R)-1′-(2-(5-Amino-3-(benzo[d][1,3]dioxol-5-y1)-1H-pyrazol-1-yl)acetyl)-6-chloro-5-fluorospiro[benzo[d][1,3]oxazine-4,3′-pyrrolidin]-2(1H)-one]
32.3 | 1250 | Nc1c(Cl)c(C2CC2)nn1CC(=O)N1CCC[C@@]2(C1)OC(=O)Nc1ccc(Cl)c(F)c12 [Example 29, (R)-1′-(2-(5-Amino-4-chloro-3-cyclopropyl-1H-pyrazol-1-yl)acetyl)-6-chloro-5-fluorospiro[benzo[d][1,3]oxazine-4,3'-piperidin]-2(1H)-one]
16.7 | 55 | Nc1cc(C2CC2)nn1CC(=O)N1CCC[C@@]2(C1)OC(=O)Nc1ccc(Cl)c(F)c12 [Example 28, (R)-1′-(2-(5-Amino-3-cyclopropyl-1H-pyrazol-1-yl)acetyl)-6-chloro-5-fluorospiro[benzo[d][1,3]oxazine-4,3′-piperidin]-2(1H)-one]
32.1 | 1830 | Nc1c(Cl)c(-c2ncc(F)cc2F)nn1CC(=O)N1CC[C@@]2(C1)OC(=O)Nc1ccc(Cl)c(F)c12 [Example 31, (R)-1′-(2-(5-Amino-4-chloro-3-(3,5-difluoropyridin-2-y1)-1H-pyrazol-1-yl)acetyl)-6-chloro-5-fluorospiro[benzo[d][1,3]oxazine-4,3′-pyrrolidin]-2(1H)-one]
11.5 | 320 | CC1(C)C(c2cc(N)n(CC(=O)N3CC[C@@]4(C3)OC(=O)Nc3ccc(Cl)c(F)c34)n2)C1(C)C [Example 53, (R)-1′-(2-(5-Amino-3-(2,2,3,3-tetramethylcyclopropyl)-1H-pyrazol-1-yl)acetyl)-6-chloro-5-fluorospiro[benzo[d][1,3]oxazine-4,3′-pyrrolidin]-2(1H)-one]
2.2 | 102 | Nc1cc(-c2c(F)cccc2F)nn1CC(=O)N1CC[C@@]2(C1)OC(=O)Nc1ccc(Cl)c(F)c12 [Example 37, (R)-1′-(2-(5-Amino-3-(2,6-difluorophenyl)-1H-pyrazol-1-yl)acetyl)-6-chloro-5-fluorospiro[benzo[d][1.3]oxazine-4,3′-pyrrolidin]-2(1H)-one]
11.8 | 679 | COc1cccc(-c2cc(N)n(CC(=O)N3CC[C@@]4(C3)OC(=O)Nc3ccc(Cl)c(F)c34)n2)c1 [Example 8, (R)-1′-(2-(5-Amino-3-(3-methoxyphenyl)-1H-pyrazol-1-yl)acetyl)-6-chloro-5-fluorospiro[benzo[d][1,3]oxazine-4,3′-pyrrolidin]-2(1H)-one]
5 | 263 | Nc1cc(-c2ccc(F)cc2F)nn1CC(=O)N1CC[C@@]2(C1)OC(=O)Nc1ccc(Cl)c(F)c12 [Example 46, (R)-1′-(2-(5-Amino-3-(2,4-difluorophenyl)-1H-pyrazol-1-yl)acetyl)-6-chloro-5-fluorospiro[benzo[d][1,3]oxazine-4,3′-pyrrolidin]-2(1H)-one]
22.2 | 484 | Nc1c2c(nn1CC(=O)N1CCC[C@@]3(C1)OC(=O)Nc1ccc(Cl)c(F)c13)CCCC2 [Example 26, (R)-1′-(2-(3-Amino-4,5,6,7-tetrahydro-2H-indazol-2-yl)acetyl)-6-chloro-5-fluorospiro[benzo[d][1,3]oxazine-4,3′-piperidin]-2(1H)-one]
3.7 | 195 | Nc1cc(-c2c(F)cc(F)cc2F)nn1CC(=O)N1CC[C@@]2(C1)OC(=O)Nc1ccc(Cl)c(F)c12 [Example 59, (R)-1′-(2-(5-Amino-3-(2,4,6-trifluorophenyl)-1H-pyrazol-1-yl)acetyl)-6-chloro-5-fluorospiro[benzo[d][1,3]oxazine-4,3′-pyrrolidin]-2(1H)-one]
7.7 | 187 | Nc1c(Cl)c(-c2ncc(F)cc2F)nn1CC(=O)N1CCC[C@@]2(C1)OC(=O)Nc1ccc(Cl)c(F)c12 [Example 33, (R)-1′-(2-(5-Amino-4-chloro-3-(3,5-difluoropyridin-2-y1)-1H-pyrazol-1-yl)acetyl)-6-chloro-5-fluorospiro[benzo[d][1,3]oxazine-4,3′-piperidin]-2(1H)-one]
32.3 | 672 | Nc1cc(C2CC(F)(F)C2)nn1CC(=O)N1CC[C@@]2(C1)OC(=O)Nc1ccc(Cl)c(F)c12 [Example 11, (R)-1′-(2-(5-Amino-3-(3,3-difluorocyclobutyl)-1H-pyrazol-1-yl)acetyl)-6-chloro-5-fluorospiro[benzo[d][1,3]oxazine-4,3′-pyrrolidin]-2(1H)-one]
37.5 | 2710 | Nc1cc(-c2cccc(C(F)(F)F)c2)nn1CC(=O)N1CC[C@@]2(C1)OC(=O)Nc1ccc(Cl)c(F)c12 [Example 12, (R)-1′-(2-(5-Amino-3-(3-(trifluoromethyl)phenyl)-1H-pyrazol-1-yl)acetyl)-6-chloro-5-fluorospiro[benzo[d][1,3]oxazine-4,3′-pyrrolidin]-2(1H)-one]
12 | 433 | N#Cc1cccc(-c2cc(N)n(CC(=O)N3CC[C@@]4(C3)OC(=O)Nc3ccc(Cl)c(F)c34)n2)c1 [Example 67, (R)-3-(5-Amino-1-(2-(6-chloro-5-fluoro-2-oxo-1,2-dihydrospiro[benzo[d] [1,3]oxazine-4,3'-pyrrolidin]-1'-y1)-2-oxoethyl)-1H-pyrazol-3-y1)benzonitrile]
